Test results: patent US10501479B2, “Benzenesulfonyl-asymmetric ureas and medical uses thereof” (HELSINN HEALTHCARE SA, priority 2016, dated 2019)
Like-named read-outs stand apart in the source and are kept apart here.

Tests used:
[1] = target: T1, recombinant human ghrelin receptor (HEK293/GRLN) (Homo sapiens, UniProt Q92847); assay: Ghrelin inverse agonist potency (EC50) with IP-1 (IP-One HTRF) assay; type: cell-based; conditions: IP-1 assay
T1 construct: expressed in transfected cells
Outline: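 HEK293/GRLN cells were seeded 18-22 hours before the test, then exposed to compound in stimulation buffer for 1 hour at 37° C, 5% CO2. IP-1 was detected by IP-One HTRF (IP1-d2 plus Tb-cryptate, 1 hour RT), reading 620 and 665 nm; the inverse agonist EC50 was derived from this.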

[2] = target: T2, GHSR-1a (HEK293/GHSR1a cell line) (Homo sapiens, UniProt Q92847); assay: Ghrelin antagonist potency (IC50) with calcium FLIPR assay, ghrelin 10 nM; type: cell-based
T2 construct: expressed in transfected cells; host or cells: HEK293/GHSR1a cell line
Outline: (§1)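 Cells seeded 24 h before the run were loaded with calcium dye for 30-60 min at room temperature or 37° C. For agonism, compound was added at t=20 sec and the calcium signal followed for 2 minutes. For antagonism, compound plus ghrelin (10 nM) went on at t=20 sec, and IC50 reflected the drop in ghrelin response.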

[3] = target: T2, GHSR-1a (HEK293/GHSR1a cell line); assay: Ghrelin agonist potency (EC50) with calcium FLIPR assay; type: cell-based
Outline: as §1

[4] = Metabolic stability in mouse liver microsomes; type: in vitro ADME
Outline: (§2)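 Test compounds were incubated with liver microsomes in 100 mM potassium phosphate buffer, pH 7.4, at 37 °C, with reactions started by an NADPH regenerating system after a 5 min preincubation. Samples taken at 0, 10, 30 and 90 min were quenched cold, centrifuged, and parent remaining was quantified by LC-MS/MS.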

[5] = Metabolic stability in human liver microsomes; type: in vitro ADME
Outline: as §2

[6] = HEK293/GRLN, read-out: Activity EC50 (ghrelin inverse agonist potency)
[7] = HEK293/GHSR1a, ghrelin 10 nM, read-out: Activity IC50 (ghrelin antagonist potency)
[8] = HEK293/GHSR1a, read-out: Activity EC50/EMax: EC50 (ghrelin agonist potency)
[9] = ghrelin inverse agonist potency, read-out: Activity EC50
[10] = ghrelin antagonist potency, read-out: Activity IC50
[11] = ghrelin agonist potency, read-out: Activity EC50/EMax

T1 sequence (Q92847 whole entry): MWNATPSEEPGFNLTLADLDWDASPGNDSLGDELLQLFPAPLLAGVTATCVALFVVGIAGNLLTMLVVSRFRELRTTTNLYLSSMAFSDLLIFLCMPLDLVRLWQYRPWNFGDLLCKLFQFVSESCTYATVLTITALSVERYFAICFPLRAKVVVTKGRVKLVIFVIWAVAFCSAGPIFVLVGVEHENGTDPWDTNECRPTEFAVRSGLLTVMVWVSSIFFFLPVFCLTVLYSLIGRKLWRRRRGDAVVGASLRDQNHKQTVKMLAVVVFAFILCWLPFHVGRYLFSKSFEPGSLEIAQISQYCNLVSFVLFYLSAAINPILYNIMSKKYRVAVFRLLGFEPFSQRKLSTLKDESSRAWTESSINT
T2 sequence (Q92847 whole entry): as above

## COc1cc(S(=O)(=O)Cc2ccc3c(c2)CC(C)N(C)C3)ccc1NC(=O)NC(C)c1cccc(Cl)c1Cl (stereo not drawn) [H1431, 1-(1-(2,3-dichlorophenyl)ethyl)-3-(4-(((2,3-dimethyl-1,2,3,4-tetrahydroisoquinolin-6-yl)methyl)sulfonyl)-2-methoxyphenyl)urea]
[1]; [6]
  EC50: 0.657 nM
[2]; [7]
  IC50: 4.54 nM
[3]; [8]
  EC50: > 30 µM
[4]
  Metabolic Stability Study M = mouse: 135.7 µL/min/mg
[5]
  Metabolic Stability Study H = human: 99.7 µL/min/mg

## CC(NC(=O)Nc1ccc(S(=O)(=O)Cc2ccc3c(c2)CNC3)cc1)c1cc(F)cc(F)c1 (stereo not drawn) [H1445, 1-(1-(3,5-difluorophenyl)ethyl)-3-(4-((isoindolin-5-ylmethyl)sulfonyl)phenyl)urea]
[1]; [6]
  EC50: 3.9 nM
[2]; [7]
  IC50: 23.8 nM
[3]; [8]
  EC50: > 30 µM
[4]
  Metabolic Stability Study M = mouse: 17.3 µL/min/mg
[5]
  Metabolic Stability Study H = human: 19.4 µL/min/mg

## CC(NC(=O)Nc1ccc(S(=O)(=O)Cc2ccc3c(c2)CN(C)C3)cc1)c1cc(F)cc(F)c1 (stereo not drawn) [H1446, 1-(1-(3,5-difluorophenyl)ethyl)-3-(4-(((2-methylisoindolin-5-yl)methyl)sulfonyl)phenyl)urea]
[1]; [6]
  EC50: 9 nM
[2]; [7]
  IC50: 96.5 nM
[3]; [8]
  EC50: > 30 µM
[4]
  Metabolic Stability Study M = mouse: 58.5 µL/min/mg
[5]
  Metabolic Stability Study H = human: 177.6 µL/min/mg

## Cc1cc(S(=O)(=O)Cc2ccc3c(c2)CN(C)C3)ccc1NC(=O)NC(C)c1ccccc1 (stereo not drawn) [H1447, 1-(2-methyl-4-(((2-methylisoindolin-5-yl)methyl)sulfonyl)phenyl)-3-(1-phenylethyl)urea]
[1]; [6]
  EC50: 6.5 nM
[2]; [7]
  IC50: 100 nM
[3]; [8]
  EC50: > 30 µM
[4]
  Metabolic Stability Study M = mouse: 42.6 µL/min/mg
[5]
  Metabolic Stability Study H = human: 72.5 µL/min/mg

## COc1cccc(F)c1C(C)NC(=O)Nc1ccc(S(=O)(=O)Cc2ccc3c(c2)CN(C)C3)cc1 (stereo not drawn) [H1454, 1-(1-(2-fluoro-6-methoxyphenyl)ethyl)-3-(4-(((2-methylisoindolin-5-yl)methyl)sulfonyl)phenyl)urea]
[1]; [6]
  EC50: 6.1 nM
[2]; [7]
  IC50: 31.8 nM
[3]; [8]
  EC50: > 30 µM
[4]
  Metabolic Stability Study M = mouse: 193.3 µL/min/mg
[5]
  Metabolic Stability Study H = human: 259.9 µL/min/mg

## COc1cccc(F)c1C(C)NC(=O)Nc1ccc(S(=O)(=O)Cc2ccc3c(c2)CNC3)cc1 (stereo not drawn) [H1455, 1-(1-(2-fluoro-6-methoxyphenyl)ethyl)-3-(4-((isoindolin-5-ylmethyl)sulfonyl)phenyl)urea]
[1]; [6]
  EC50: 5.2 nM
[2]; [7]
  IC50: 42.5 nM
[3]; [8]
  EC50: > 30 µM
[4]
  Metabolic Stability Study M = mouse: 56.9 µL/min/mg
[5]
  Metabolic Stability Study H = human: 55.5 µL/min/mg

## CC(NC(=O)Nc1ccc(S(=O)(=O)Cc2ccc3c(c2)CN(C)C3)cc1Cl)c1ccccc1 (stereo not drawn) [H1456, 1-(2-chloro-4-(((2-methylisoindolin-5-yl)methyl)sulfonyl)phenyl)-3-(1-phenylethyl)urea]
[1]; [9]
  EC50: 6.2 nM
[2]; [10]
  IC50: 109 nM
[3]; [11]
  EC50: > 30 µM
[4]
  Metabolic Stability Study M = mouse: 137.8 µL/min/mg
[5]
  Metabolic Stability Study H = human: 160.6 µL/min/mg

## COC(=O)c1cc(S(=O)(=O)Cc2ccc3c(c2)CNC3)ccc1NC(=O)NC(C)c1ccccc1 (stereo not drawn) [H1459, methyl 5-((isoindolin-5-ylmethyl)sulfonyl)-2-(3-(1-phenylethyl)ureido)benzoate]
[1]; [9]
  EC50: 8.4 nM
[2]; [10]
  IC50: 11.5 nM
[3]; [11]
  EC50: > 30 µM
[4]
  Metabolic Stability Study M = mouse: 49.3 µL/min/mg
[5]
  Metabolic Stability Study H = human: 53.7 µL/min/mg

## COc1cc(NC(=O)NC(C)c2ccccc2)ccc1S(=O)(=O)Cc1ccc2c(c1)CN(C)C2 (stereo not drawn) [H1462, 1-(3-methoxy-4-(((2-methylisoindolin-5-yl)methyl)sulfonyl)phenyl)-3-(1-phenylethyl)urea]
[1]; [9]
  EC50: 6.24 nM
[2]; [10]
  IC50: 13.8 nM
[3]; [11]
  EC50: > 30 µM
[4]
  Metabolic Stability Study M = mouse: 15.8 µL/min/mg
[5]
  Metabolic Stability Study H = human: 76.1 µL/min/mg

## COc1cc(S(=O)(=O)Cc2ccc3c(c2)CCNC3)ccc1NC(=O)N[C@@H](C)c1cccc(Cl)c1Cl [H1482, (S)-1-(1-(2,3-dichlorophenyl)ethyl)-3-(2-methoxy-4-(((1,2,3,4-tetrahydroisoquinolin-6-yl)methyl)sulfonyl)phenyl)urea]
[1]; [9]
  EC50: 0.4 nM
[2]; [10]
  IC50: 0.282 nM
[3]; [11]
  EC50: > 30 µM
[4]
  Metabolic Stability Study M = mouse: 12.5 µL/min/mg
[5]
  Metabolic Stability Study H = human: < 10 µL/min/mg

## CC(NC(=O)Nc1ccc(S(=O)(=O)Cc2ccc3c(c2)CNC3)cc1C1CC1)c1ccccc1 (stereo not drawn) [H1484, 1-(2-cyclopropyl-4-((isoindolin-5-ylmethyl)sulfonyl)phenyl)-3-(1-phenylethyl)urea]
[1]; [9]
  EC50: 7.1 nM
[2]; [10]
  IC50: 21.7 nM
[3]; [11]
  EC50: > 30 µM
[4]
  Metabolic Stability Study M = mouse: 149.3 µL/min/mg
[5]
  Metabolic Stability Study H = human: 116.7 µL/min/mg

## CC(NC(=O)Nc1ccc(S(=O)(=O)Cc2ccc3c(c2)CN(C)C3)c(O)c1)c1ccccc1.O=C(O)C(F)(F)F (stereo not drawn) [H1487, 1-(3-hydroxy-4-(((2-methylisoindolin-5-yl)methyl)sulfonyl)phenyl)-3-(1-phenylethyl)urea]
[1]; [9]
  EC50: 5.7 nM
[2]; [10]
  IC50: 18.7 nM
[3]; [11]
  EC50: > 30 µM
[4]
  Metabolic Stability Study M = mouse: 16.9 µL/min/mg
[5]
  Metabolic Stability Study H = human: 26.1 µL/min/mg

## COC(=O)c1cc(NC(=O)NC(C)c2ccccc2)ccc1S(=O)(=O)Cc1ccc2c(c1)CNC2 (stereo not drawn) [H1505, methyl 2-((isoindolin-5-ylmethyl)sulfonyl)-5-(3-(1-phenylethyl)ureido)benzoate]
[1]; [9]
  EC50: 11.7 nM
[2]; [10]
  IC50: 8.28 nM
[3]; [11]
  EC50: > 30 µM
[4]
  Metabolic Stability Study M = mouse: 135.5 µL/min/mg
[5]
  Metabolic Stability Study H = human: 37.3 µL/min/mg

## CC(NC(=O)Nc1ccc(S(=O)(=O)Cc2ccc3c(c2)CNC3)c(C2CC2)c1)c1ccccc1 (stereo not drawn) [H1506, 1-(3-cyclopropyl-4-((isoindolin-5-ylmethyl)sulfonyl)phenyl)-3-(1-phenylethyl)urea]
[1]; [9]
  EC50: 4.2 nM
[2]; [10]
  IC50: 2.28 nM
[3]; [11]
  EC50: > 30 µM
[4]
  Metabolic Stability Study M = mouse: 132.5 µL/min/mg
[5]
  Metabolic Stability Study H = human: 49.2 µL/min/mg

## CC(c1cccc(Cl)c1Cl)N(O)C(=O)Nc1ccc(S(=O)(=O)Cc2ccc3c(c2)CNC3)cc1.O=C(O)C(F)(F)F (stereo not drawn) [H1509, 1-(1-(2,3-dichlorophenyl)ethyl)-1-hydroxy-3-(4-((isoindolin-5-ylmethyl)sulfonyl)phenyl)urea]
[1]; [9]
  EC50: 1 nM
[2]; [10]
  IC50: 0.336 nM
[3]; [11]
  EC50: > 30 µM
[4]
  Metabolic Stability Study M = mouse: 16.0 µL/min/mg
[5]
  Metabolic Stability Study H = human: 15.9 µL/min/mg

## COc1cc(NC(=O)N(O)C(C)c2ccccc2F)ccc1S(=O)(=O)Cc1ccc2c(c1)CNC2 (stereo not drawn) [H1510, 1-(1-(2-fluorophenyl)ethyl)-1-hydroxy-3-(4-((isoindolin-5-ylmethyl)sulfonyl)-3-methoxyphenyl)urea]
[1]; [9]
  EC50: 3.5 nM
[2]; [10]
  IC50: 5.36 nM
[3]; [11]
  EC50: > 30 µM
[4]
  Metabolic Stability Study M = mouse: 18.4 µL/min/mg
[5]
  Metabolic Stability Study H = human: 23.8 µL/min/mg

## COc1cc(NC(=O)N(O)C(C)c2ccccc2F)ccc1S(=O)(=O)Cc1ccc2c(c1)CN(C)C2 (stereo not drawn) [H1511, 1-(1-(2-fluorophenyl)ethyl)-1-hydroxy-3-(3-methoxy-4-(((2-methylisoindolin-5-yl)methyl)sulfonyl)phenyl)urea]
[1]; [9]
  EC50: 5.2 nM
[2]; [10]
  IC50: 6.04 nM
[3]; [11]
  EC50: > 30 µM
[4]
  Metabolic Stability Study M = mouse: 44.5 µL/min/mg
[5]
  Metabolic Stability Study H = human: 94.2 µL/min/mg

## COc1cc(NC(=O)N(O)C(C)c2ccccc2)ccc1S(=O)(=O)Cc1ccc2c(c1)CNC2 (stereo not drawn) [H1515, 1-hydroxy-3-(4-((isoindolin-5-ylmethyl)sulfonyl)-3-methoxyphenyl)-1-(1-phenylethyl)urea]
[1]; [9]
  EC50: 9.6 nM
[2]; [10]
  IC50: 15.7 nM
[3]; [11]
  EC50: > 30 µM
[4]
  Metabolic Stability Study M = mouse: 18.4 µL/min/mg
[5]
  Metabolic Stability Study H = human: 15.2 µL/min/mg

## COc1cc(NC(=O)N(O)C(C)c2ccccc2)ccc1S(=O)(=O)Cc1ccc2c(c1)CN(C)C2 (stereo not drawn) [H1516, 1-hydroxy-3-(3-methoxy-4-(((2-methylisoindolin-5-yl)methyl)sulfonyl)phenyl)-1-(1-phenylethyl)urea]
[1]; [9]
  EC50: 11.3 nM
[2]; [10]
  IC50: 33.5 nM
[3]; [11]
  EC50: > 30 µM
[4]
  Metabolic Stability Study M = mouse: 35.1 µL/min/mg
[5]
  Metabolic Stability Study H = human: 65.2 µL/min/mg

## COc1cc(S(=O)(=O)Cc2ccc3c(c2)CNC3)ccc1NC(=O)N(O)C(C)c1ccccc1 (stereo not drawn) [H1517, 1-hydroxy-3-(4-((isoindolin-5-ylmethyl)sulfonyl)-2-methoxyphenyl)-1-(1-phenylethyl)urea]
[1]; [9]
  EC50: 6.7 nM
[2]; [10]
  IC50: 10.5 nM
[3]; [11]
  EC50: > 30 µM
[4]
  Metabolic Stability Study M = mouse: 56.6 µL/min/mg
[5]
  Metabolic Stability Study H = human: 25.6 µL/min/mg

## COc1cc(S(=O)(=O)Cc2ccc3c(c2)CN(C)C3)ccc1NC(=O)N(O)C(C)c1ccccc1 (stereo not drawn) [H1518, 1-hydroxy-3-(2-methoxy-4-(((2-methylisoindolin-5-yl)methyl)sulfonyl)phenyl)-1-(1-phenylethyl)urea]
[1]; [9]
  EC50: 7.8 nM
[2]; [10]
  IC50: 27.4 nM
[3]; [11]
  EC50: > 30 µM
[4]
  Metabolic Stability Study M = mouse: 154.7 µL/min/mg
[5]
  Metabolic Stability Study H = human: 151.1 µL/min/mg
